How the values were obtained:
[1] = tested on: L. braziliensis-infected macrophages; assay: ROS levels in Leishmania-infected macrophages (H2DCFDA); type: cell-based, Leishmania braziliensis; details: H2O2 0.02 µg/mL (0.5 µmol/L)
Description: Macrophages (1 × 10^6 cells/mL) were incubated in 96-well culture plates (Nunc, Nunclon, Roskilde, Denmark) and infected with L. braziliensis promastigotes (at a ratio of 10 parasites per cell). The infected macrophages were either left untreated or treated with Compound 28 (at a concentration of 5.0 µg/mL) for 48 h at 37 °C in 5% CO2. The cells were washed with PBS and incubated with 20 μmol/L H2DCFDA (Molecular Probes, Eugene, Oregon, USA) for 30 min in the dark. The fluorescence intensity was measured using a spectrofluorometer (FLx800; BioTek Instruments, Winooski, VT, USA) at 485 nm excitation and 528 nm emission. As a positive control, the infected macrophages were incubated with H2O2 at a concentration of 0.02 µg/mL (0.5 µmol/L). Parasites that were untreated with Compound 28 and not labeled with the fluorescent probe were used as the sample blank.
Figure 3 Production of ROS in L. braziliensis-infected macrophages treated with Compound 28. Leishmania braziliensis-infected macrophages (1 × 10^5 cells) were incubated with Compound 28 (5.0 µg/mL) for 48 h at 37 °C in a 5% CO2 environment. Subsequently, 2′,7′-dichlorodihydrofluorescein diacetate (H2DCFDA, 9.7 μg/mL) was added for 30 min under dark conditions. The fluorescence levels were measured in a spectrofluorometer at 485/528 nm. H2O2 (0.5 µmol/L) was used as a positive control. […]

[2] = tested on: L. braziliensis promastigotes; assay: ROS production in promastigotes (H2DCFDA); type: cell-based, Leishmania braziliensis; details: H2O2-incubated promastigotes
Description: After treatment with Compound 28 (at a concentration corresponding to one IC50 value) for 48 h at 24 °C, L. braziliensis promastigotes were washed with PBS, and the parasite concentration was adjusted to 3 × 10^6 cells per well. H2DCFDA (Sigma-Aldrich, St. Louis, MO, USA) was then added and incubated for 30 min in the dark, and samples were read in a fluorometric microplate reader (FLx800, BioTek Instruments, Winooski, VT, USA) with excitation and emission wavelengths of 485 and 528 nm, respectively. Parasites that were untreated or treated with Compound 28 and not labeled with the fluorescent probe were used as the blank.
Figure 4 ΔΨm and ROS production in Leishmania after exposure to Compound 28. Leishmania braziliensis promastigotes were not exposed (negative control) or exposed to Compound 28 (at a concentration corresponding to the IC50 value) for 48 h. (A) Depolarization of ΔΨm was evaluated using the JC-1 fluorescent probe. Samples were analyzed fluorometrically, and the results are expressed as the ratio of red/green fluorescence. FCCP ([…]) was used as a positive control. (B) ROS production was evaluated using the H2DCFDA probe. The fluorescence intensity was measured by fluorimetry, and the results are expressed as the fold increase in the ROS level compared with the non-treated control. H2O2-treated parasites were used as a positive control. […]

[3] = tested on: Leishmania braziliensis stationary promastigotes; assay: In vitro antileishmanial activity against promastigotes (MTT); type: cell-based; details: Leishmania braziliensis; 48 h at 24 °C, MTT, mean ± standard deviation
Description: The study was approved by the Committee for the Ethical Handling of Research Animals from the Federal University of Minas Gerais (protocol number 085/2017). Leishmania braziliensis (MHOM/BR/1975/M2904) promastigotes were grown at 24 °C in Schneider’s medium (Sigma-Aldrich, USA) supplemented with 20% heat-inactivated fetal bovine serum (FBS, Sigma-Aldrich, USA) and 20 mmol/L L-glutamine at pH 7.4 [65].
(§1) The in vitro antileishmanial activity was evaluated by incubating the promastigotes or axenic amastigotes (1 × 10^6 cells/well) with the 24 synthetic derivatives (Compounds 5–28; 0 to 600 µg/mL) in 96-well culture plates (Nunc, Nunclon, Roskilde, Denmark) for 48 h at 24 °C. Due to the difficulty in obtaining a high concentration of murine macrophages, the cytotoxicity experiment was evaluated by incubating such cells (5 × 10^5 per mL) with Compound 28 (0 to 600 µg/mL), which presented the best antileishmanial activity, for 48 h at 37 °C in a 5% CO2 environment. AmpB (0 to 10 µg/mL; Sigma-Aldrich, St. Louis, MO, USA) was used as a positive control in both experiments. The cell viability was assessed using the 3-(4.5-dimethylthiazol-2-yl)-2.5-diphenyl tetrazolium bromide (MTT, Sigma-Aldrich, St. Louis, MO, USA) method. The optical density (OD) values were read using a microplate spectrophotometer (Molecular Devices, Spectra Max Plus, San Jose, CA, USA) at 570 nm. Results were entered into Microsoft Excel (version 10.0) spreadsheets, and the 50% Leishmania and macrophage inhibitory concentrations (IC50 and CC50, respectively) were calculated by applying a sigmoidal regression of the dose–response curve. The SI was calculated by dividing the CC50 with the respective IC50 values.

[4] = tested on: Leishmania braziliensis axenic amastigotes; assay: In vitro antileishmanial activity against axenic amastigotes (MTT); type: cell-based; details: Leishmania braziliensis, 48 h, 48 h at 24 °C, MTT, mean ± standard deviation
Description: To obtain the axenic amastigotes, 1 × 10^9 stationary promastigotes were washed three times in sterile phosphate-buffered saline (PBS) and incubated in 5 mL FBS for 48 h at 37 °C. Parasites were washed with cold PBS, and their morphology was evaluated with an optical microscope after Giemsa staining as previously described.
as §1

[5] = tested on: Leishmania braziliensis promastigotes; assay: Depolarization of mitochondrial membrane potential (ΔΨm), JC-1; type: cell-based; details: FCCP 1.3 µg/mL (5.0 µmol/L) for 20 min; non-treated parasites 7.2
Description: Leishmania braziliensis promastigotes (1 × 10^7 cells/mL) were treated with compound 28 (at a concentration corresponding to one IC50 value) for 48 h at 24 °C. The parasites (3 × 10^6 cells/mL) were then labeled with JC-1 (5 µg/mL, Sigma-Aldrich, St. Louis, MO, USA) for 30 min at 37 °C. After washing twice with PBS to remove the non-internalized dye, the samples were added to a black 96-well plate, and the ΔΨm was analyzed in a spectrofluorometer (FLx800, BioTek Instruments, Winooski, VT, USA) with an excitation filter of 485 nm and emission wavelength of 528 nm and […] to measure the green and red fluorescence, respectively. The ΔΨm was determined using the ratio between the red/green fluorescence intensity. Parasites that were exposed to 1.3 µg/mL (5.0 µmol/L) of FCCP (Sigma-Aldrich, St. Louis, MO, USA) for 20 min were used as a control. […]
Figure 4 ΔΨm and ROS production in Leishmania after exposure to Compound 28. […] (A) Depolarization of ΔΨm was evaluated using the JC-1 fluorescent probe. Samples were analyzed fluorometrically, and the results are expressed as the ratio of red/green fluorescence. […] (B) ROS production was evaluated using the H2DCFDA probe. The fluorescence intensity was measured by fluorimetry, and the results are expressed as the fold increase in the ROS level compared with the non-treated control. […]

Structure (SMILES) | Increase in ROS production in infected cells (positive control) [1] [%] | Fold increase in ROS levels compared with untreated parasites (positive control) [2] [fold] | IC50 [3] [µg/mL] | melting point [°C] | IC50 [4] [µg/mL] | ΔΨm, JC-1 ratio of red/green fluorescence (positive control) [5]
OO [Compound H2O2, H2O2, reference compound] | 41.4 | 1.6 | – | – | – | –
COc1ccc(/C=C/C(=O)NCc2cn(Cc3ccc(Br)cc3)nn2)cc1OC [Compound 20, N-((1-(4-bromobenzyl)-1H-1,2,3-triazol-4-yl)methyl) (3,4-dimethoxy) cinnamide] | – | – | > 600 | 198.2 to 199.6 | > 600 | –
N#CC(C#N)=NNc1ccc(OC(F)(F)F)cc1 [FCCP, carbonyl cyanide-p-trifluoromethoxyphenylhydrazone, reference compound] | – | – | – | – | – | 3.4
COc1ccc(/C=C/C(=O)NCc2cn(Cc3ccc(F)c(F)c3)nn2)cc1OC [Compound 26, N-((1-(3,4-difluorobenzyl)-1H-1,2,3-triazol-4-yl)methyl) (3,4-dimethoxy) cinnamide] | – | – | > 600 | 166 to 167.2 | > 600 | –
COc1ccc(/C=C/C(=O)NCc2cn(Cc3ccc(Br)cc3)nn2)cc1 [Compound 9, N-((1-(4-bromobenzyl)-1H-1,2,3-triazol-4-yl)methyl) (4-methoxy) cinnamide] | – | – | > 600 | 193.1 to 194.7 | > 600 | –
COc1ccc(/C=C/C(=O)NCc2cn(Cc3ccc(C(C)C)cc3)nn2)cc1OC [Compound 17, N-((1-(4-isopropylbenzyl)-1H-1,2,3-triazol-4-yl)methyl) (3,4-dimethoxy) cinnamide] | – | – | > 600 | 175.5 to 176.4 | > 600 | –
COc1ccc(/C=C/C(=O)NCc2cn(Cc3ccc(C(F)(F)F)cc3)nn2)cc1OC [Compound 25, N-((1-(4-(trifluoromethyl)benzyl)-1H-1,2,3-triazol-4-yl)methyl) (3,4-dimethoxy) cinnamide] | – | – | > 600 | 196.4 to 197.6 | > 600 | –
COc1ccc(/C=C/C(=O)NCc2cn(Cc3ccc(C(F)(F)F)cc3)nn2)cc1 [Compound 14, N-((1-(4-(trifluoromethyl)benzyl)-1H-1,2,3-triazol-4-yl)methyl) (4-methoxy) cinnamide] | – | – | > 600 | 220.5 to 221.9 | > 600 | –
COc1ccc(/C=C/C(=O)NCc2cn(Cc3ccc(F)cc3)nn2)cc1OC [Compound 18, N-((1-(4-fluorobenzyl)-1H-1,2,3-triazol-4-yl)methyl) (3,4-dimethoxy) cinnamide] | – | – | > 600 | 174.8 to 175.5 | > 600 | –
COc1ccc(/C=C/C(=O)NCc2cn(Cc3ccc(OC(F)(F)F)cc3)nn2)cc1 [Compound 13, N-((1-(4-(trifluoromethoxy)benzyl)-1H-1,2,3-triazol-4-yl)methyl) (4-methoxy) cinnamide] | – | – | > 600 | 191.4 to 193 | > 600 | –
COc1ccc(/C=C/C(=O)NCc2cn(Cc3ccc(F)c(F)c3)nn2)cc1 [Compound 15, N-((1-(3,4-difluorobenzyl)-1H-1,2,3-triazol-4-yl)methyl) (4-methoxy) cinnamide] | – | – | > 600 | 166.3 to 167.7 | > 600 | –
CCN(CC)c1ccc2cc(-n3cc(CNC(=O)/C=C/c4ccc(OC)cc4)nn3)c(=O)oc2c1 [Compound 27, N-((1-(7-(diethylamino)-2-oxo-2H-chromen-3-yl)-1H-1,2,3-triazol-4-yl)methyl) (4-methoxy) cinnamide] | – | – | > 600 | 191.3 to 192.7 | > 600 | –

Reference: paper PMC10459042, “Synthesis of 1,2,3-Triazole-Containing Methoxylated Cinnamides and Their Antileishmanial Activity against the Leishmania braziliensis Species” (Pharmaceuticals, 2023)
